These results are taken from patent US7166440B2, “2,4,5-trichlorophenoxyalkyl carboxylic acid and a method for determining dioxins using the same” (priority 2003, dated 2007).

Series [1] concerns anti-dioxin antibody (monoclonal antibody) to 1,2,3,7,8-PeCDF. Type of series: binding, mouse. The procedure: (§1) First, the immune antigen or the compound (IIa) conjugated with BSA that was produced in Example 2 was diluted with PBS to 1 μg/ml, and divided into each well of a 96-well assay plate (manufactured by Costar, Cat. No. 3590) in an amount of 50 μl. Then, the plate was sealed and allowed to stand at room temperature for one hour. Then, each well was washed with PBS containing 0.005% of Tween 20 three times. Next, 300 μl of Block Ace (manufactured by Snow Brand Milk Products Co., Ltd.) diluted with distilled water to a concentration of 25% was supplied to each well, and the plate was sealed and allowed to stand at 37° C. for two hours. Each well was washed with PBS containing 0.005% of Tween 20 three times. Then, a 25 μl of the dioxin compound solution of a final concentration of 5×10^−7 M was added to each well. The dioxin compound solution was prepared by diluting the dioxin with a dilution solvent comprising 20% DMSO and 0.01% of Triton X100. As controls, a dilution solvent in an amount of 25 μl was added to each well. Immediately after the addition of the dioxin compound solution or the dilution solvent, 25 μl of an antibody solution diluted with PBS containing 1 mg/ml of BSA was added to each well. The assay plate was stand at room temperature for one hour with slightly shaking.
(§2) After washing with PBS containing 0.005% of Tween 20 three times, 50 μl of the diluted HRP-labeled goat anti-mouse IgG (H+L) antibody (produced by affinity purification) was added to each well. The diluted HRP-labeled antibody was prepared by diluting the purchased HRP-labeled antibody to 2000 times as much with 10% Block Ace. The plate was allowed to stand at room temperature for one hour, followed by washing with PBS containing 0.005% of Tween 20 three times. Then, 50 μl of a HRP substrate, TMB (manufactured by KPL Co., Ltd.), was added to each well and allowed to stand at room temperature for 5 to 10 min. Then, 5 μl of a 1 M phosphate solution was added to each well, and the absorbance at a wavelength of 455 nm (655 nm for the reference) was measured with a spectrophotometer for a microtiter. The reactivity was evaluated by obtaining the absorbance (B0) at the time when the dioxin compound is not added, which is a control (diluent) and the absorbance (B) at the time when the dioxin compound is added. The inhibition rate was measured based on the following equation. Inhibition rate={(B0−B)/B0}×100 (%)
An anti-dioxin antibody (monoclonal antibody) to 1,2,3,7,8-PeCDF is used as an antibody. A haptenized product of a solid-phase antigen 6-(2,4,5-trichlorophenoxy) hexanoic acid amide derivative (IIa) and the chlorine-containing organic compounds in Tables 2 and 3 were allowed to compete with each other to this anti-dioxin antibody so that a competitive reaction was effected in the same manner as in Example 3. Then, the cross-reactivity was examined.

The conditions of series [2]: toxicity equivalent factor of the dioxins used; cited from earlier work.
Series [3] has as its system monoclonal antibody of clone C-1 (anti-dioxin antibody). The series is described as follows: Competitive EIA: inhibition of binding of clone C-1 monoclonal antibody to solid-phase antigen by free dioxin. More on the design: species or system mouse. The procedure: (§3) Using various monoclonal antibodies, the specificity of the monoclonal antibodies to dioxin isomers was examined. The monoclonal antibodies were prepared in the following manner. An antibody-producing cell was injected into the abdominal cavity of a pristane-pretreated mouse. Th ascites fluid in the abdominal cavity caused by the growth of the cells was collected, and then a monoclonal antibody was purified by affinity chromatography using a protein G-Sepharose (manufactured by BIO-RAD Co.) as a carrier. Using three antibody-producing clones C-1, C-2 and C-3, respective monoclonal antibodies were prepared. The clones C-1, C-2 and C-3 produce monoclonal antibodies with respect to dibenzodioxin having chlorine atom at the 2-, 3-, 7-, and 8-positions.
(§4) To evaluate the specificity of the monoclonal antibody was performed according to the following principles. A solid-phase antigen (competitor) and a free dioxin (ligand) are allowed to compete with each other with respect to a free monoclonal antibody (anti-dioxin antibody). If the reactivity of the monoclonal antibody and the dioxin is higher than that of the monoclonal antibody and the solid-phase antigen, the binding of the monoclonal antibody to the solid-phase antigen is reduced. This reduction of the binding of the monoclonal antibody to the solid-phase antigen can be measured by color development method. This phenomenon can be applied to evaluate the specificity.
as §1, §2
(§5) Evaluation was such that the larger this inhibition rate is, the higher the specificity of the anti-dioxin antibody to the dioxin compound.

The subject of series [4] is monoclonal antibody of clone C-3 (anti-dioxin antibody). The series is described as follows: Competitive EIA: inhibition of binding of clone C-3 monoclonal antibody to solid-phase antigen by free dioxin. More on the design: species or system mouse. The procedure:
as §3, §4, §1, §2, §5

The subject of series [5] is monoclonal antibody of clone C-2 (anti-dioxin antibody). The series is described as follows: Competitive EIA: inhibition of binding of clone C-2 monoclonal antibody to solid-phase antigen by free dioxin. More on the design: species or system mouse. The method, then: as §3, §4, §1, §2, §5
[6] abbreviates: Table 3, other chlorine-containing organic compounds and polycyclic aromatic hydrocarbons, solid-phase antigen (IIa), antibody to 1,2,3,7,8-PeCDF.
Where [7] appears, read: Table 2, dioxins having TEF, solid-phase antigen (IIa), antibody to 1,2,3,7,8-PeCDF.
[8] abbreviates: solid-phase antigen * (haptenized product of 6-(2,4,5-trichlorophenoxy) hexanoic acid amide derivative IIa), dioxin compound 5×10^−7 M.
[9] abbreviates: solid-phase antigen immunogen 1, dioxin compound final concentration 5×10^−7 M.
Setting [10] is: solid-phase antigen immunogen 3, dioxin compound final concentration 5×10^−7 M.
[11] abbreviates: solid-phase antigen immunogen 2, dioxin compound final concentration 5×10^−7 M.

Read-outs that look alike come from different tables or passages of the source.

`Oc1ccc(Cl)c(Cl)c1` [3,4-Dichlorophenol] had a cross reaction in series [1] (setting [6]) of less than 0.1%.
`Clc1cc2c(c(Cl)c1Cl)Oc1c(Cl)c(Cl)c(Cl)c(Cl)c1O2` [1,2,3,4,6,7,8-HpCDD] yielded a cross reaction in series [1] (setting [7]) of 17.0%. Besides, the TEF value in series [2] was 0.01. In addition, the Inhibition rate in series [3] (setting [8]) was 1.4%; in series [3] (setting [9]), 1.5%; in series [4] (setting [8]), 2.1%; in series [4] (setting [10]) it was 0.4%; in series [5] (setting [8]), −3.2%; in series [5] (setting [11]), −12.4%.
In series [1] (setting [7]), `Clc1cc2c(oc3c(Cl)c(Cl)c(Cl)c(Cl)c32)c(Cl)c1Cl` [1,2,3,4,6,7,8-HpCDF] gave a cross reaction of 17.9%. Also, the TEF value in series [2] was 0.01. Moreover, the Inhibition rate in series [3] (setting [8]) was 7.5%; in series [3] (setting [9]), −0.9%; in series [4] (setting [8]), 3.4%; in series [4] (setting [10]), −2.7%; in series [5] (setting [8]), 51.4%; in series [5] (setting [11]), 6.8%.
For `c1ccc2ccccc2c1` [Naphthalene], the cross reaction in series [1] (setting [6]) is recorded as less than 0.1%.
Still for that read-out and setting: next, `Clc1cccc(Cl)c1Cl` [1,2,3-Trichlorobenzene]: less than 0.1%.
Regarding `Clc1cc2oc3cc(Cl)c(Cl)c(Cl)c3c2cc1Cl` [1,2,3,7,8-PeCDF], the cross reaction in series [1] (setting [7]) and in series [1] (setting [6]) was 100.0% in each case. In addition, the TEF value in series [2] is 0.05. The Inhibition rate stood at 27.1% in series [3] (setting [8]); 11.8% in series [3] (setting [9]); 23.2% in series [4] (setting [8]); 0.5% in series [4] (setting [10]); 68.6% in series [5] (setting [8]); 17.5% in series [5] (setting [11]).
`Clc1cc2c(cc1Cl)Oc1c(Cl)c(Cl)c(Cl)c(Cl)c1O2` [1,2,3,4,7,8-HxCDD] came in with a cross reaction in series [1] (setting [7]) of 24.8%. In addition, the TEF value in series [2] is 0.1. The Inhibition rate in series [3] (setting [8]) is recorded as 14.1%; in series [3] (setting [9]), −1.4%; in series [4] (setting [8]), −2.3%; in series [4] (setting [10]), −2.5%; in series [5] (setting [8]), 19.1%; in series [5] (setting [11]) it was −9.4%.
With `Clc1c(Cl)c(Cl)c2c(c1Cl)Oc1c(Cl)c(Cl)c(Cl)c(Cl)c1O2` [OCDD], in series [1] (setting [7]), the cross reaction is reported as less than 0.1%. Besides, the TEF value in series [2] is 0.0001. Besides, the Inhibition rate is listed as 1.6% in series [3] (setting [8]); −2.5% in series [3] (setting [9]); −3.7% in series [4] (setting [8]); −0.4% in series [4] (setting [10]); 9.4% in series [5] (setting [8]); 0.1% in series [5] (setting [11]).
Regarding `c1ccc2c(c1)-c1ccc3ccc4cccc5cc-2c1c3c45` [Indeno[1,2,3-cd]pyrene], in series [1] (setting [6]), the cross reaction was less than 0.1%.
The same measure, in the same setting: next, `c1ccc2c(c1)ccc1ccccc12` [Phenanthrene]: less than 0.1%.
The molecule `c1ccc2c(c1)-c1cccc3cccc-2c13` [Fluoranthene] returned a cross reaction in series [1] of less than 0.1%.
As for `Clc1cc2c(cc1Cl)Oc1c(cc(Cl)c(Cl)c1Cl)O2` [1,2,3,7,8-PeCDD], in series [1] (setting [7]), the cross reaction was 29.9%. For the same molecule, the TEF value in series [2] is given as 1. In addition, the Inhibition rate in series [3] (setting [8]) is on record as 46.2%; in series [3] (setting [9]), 21.3%; in series [4] (setting [8]) it was 31.2%; in series [4] (setting [10]), 5.4%; in series [5] (setting [8]), 70.4%; in series [5] (setting [11]) it was 45.7%.
As to `Clc1cc2c(c(Cl)c1Cl)Oc1cc(Cl)c(Cl)c(Cl)c1O2` [1,2,3,6,7,8-HxCDD], the cross reaction in series [1] (setting [7]) was 18.0%. The TEF value in series [2] is given as 0.1. Besides, the Inhibition rate in series [3] (setting [8]) was −0.3%; in series [3] (setting [9]), 3.1%; in series [4] (setting [8]) it was 6.7%; in series [4] (setting [10]), 3.9%; in series [5] (setting [8]), 2.2%; in series [5] (setting [11]), −6.2%.
`c1ccc2cc3c(cc2c1)-c1cccc2cccc-3c12` [Benzo[k]fluoranthene] came in with a cross reaction in series [1] (setting [6]) of less than 0.1%.
Still for that read-out and setting: next, `Clc1cc(-c2cc(Cl)c(Cl)c(Cl)c2)cc(Cl)c1Cl` [3,3′,4,4′,5,5′-HxCB]: less than 0.1%; `c1ccc2cc3ccccc3cc2c1` [Anthracene]: less than 0.1%.
The molecule `Clc1cc2c(oc3c(Cl)c(Cl)c(Cl)cc32)c(Cl)c1Cl` [2,3,4,6,7,8-HxCDF] had a cross reaction in series [1] (setting [7]) of 43.8%. The TEF value in series [2] is 0.1. Further, the Inhibition rate is given as 44.8% in series [3] (setting [8]); 31.1% in series [3] (setting [9]); 47.9% in series [4] (setting [8]); 13.2% in series [4] (setting [10]); 82.8% in series [5] (setting [8]); 28.1% in series [5] (setting [11]).
For `c1ccc2c(c1)-c1cccc3c1c-2cc1ccccc13` [Benzo[b]fluoranthene], the cross reaction in series [1] (setting [6]) is listed as less than 0.1%.
Same read-out and setting: then `c1ccc2c(c1)ccc1c3ccccc3ccc21` [Chrysene], with less than 0.1%; and `c1cc2ccc3cccc4ccc(c1)c2c34` [Pyrene], with less than 0.1%; and `Clc1ccc(-c2cc(Cl)c(Cl)c(Cl)c2)cc1Cl` [3,3′,4,4′,5-PeCB], with less than 0.1%.
Still for that read-out and setting: next, `c1ccc2c(c1)Cc1ccccc1-2` [Fluorene]: less than 0.1%; `Clc1ccc(-c2ccc(Cl)c(Cl)c2)cc1Cl` [3,3′,4,4′-TeCB]: less than 0.1%.
With `Clc1cc2oc3c(Cl)c(Cl)c(Cl)cc3c2cc1Cl` [2,3,4,7,8-PeCDF], in series [1] (setting [7]), the cross reaction was found to be 16.1%. Also, the Inhibition rate in series [3] (setting [8]) came out at 40.1%; in series [3] (setting [9]) it was 26.5%; in series [4] (setting [8]) it was 46.2%; in series [4] (setting [10]), 13.0%; in series [5] (setting [8]), 55.0%; in series [5] (setting [11]), 40.2%.
For `Oc1ccc(Cl)cc1Cl` [2,4-Dichlorophenol], the cross reaction in series [1] (setting [6]) was less than 0.1%.
The same measure, in the same setting: then `c1cc2ccc3ccc4ccc5cccc6c(c1)c2c3c4c56` [Benzo[ghi]perylene], with less than 0.1%; and `c1ccc2cc3c(ccc4ccccc43)cc2c1` [Benz[a]anthracene], with less than 0.1%; and `Clc1cccc(Cl)c1` [m-Dichlorobenzene], with less than 0.1%.
In series [1] (setting [6]), `Oc1cc(Cl)c(Cl)cc1Cl` [2,4,5-Trichlorophenol] registered a cross reaction of less than 0.1%.
Same read-out and setting: then `Clc1ccc(-c2ccccc2)cc1` [p-chlorobiphenyl], with less than 0.1%.
